Laboratory results reported in PMC539285, “Anti-Plasmodium activity of ceramide analogs” (Malaria Journal, 2004).

Tests used:
[1] = tested on: chloroquine-resistant strain FcB1 of P. falciparum; experiment: Anti-Plasmodium activity, [3H]hypoxanthine microdilution on asynchronous cultures; assay type: cell-based, Plasmodium falciparum
Protocol: (§1) P. falciparum strains (FcB1/Colombia, K1/Thailand, F32/Tanzania, W2/Indochina) were maintained in continuous culture on human erythrocytes in RPMI medium containing 7% (v/v) heat-inactivated human serum under an atmosphere of 3% CO2, 6% O2, 91% N2, at 37°C, as described by Trager and Jensen. Parasite synchronization was performed successively by treatment with 5% (w/v) sorbitol and by concentration in gelatin solution as previously described.
(§2) Drug susceptibility assays were performed using a modification of the semi automated microdilution technique of Desjardins et al.. Stock solutions of test compounds were prepared in DMSO. Drug solutions were serially diluted twofold with 100 μl culture medium in 96-well plates. Asynchronous parasite cultures (100 μl, 1 % parasitemia and 1 % final hematocrite) were added to each well and incubated for 24 hours at 37°C prior to the addition of 0.5 μCi of [^3H] hypoxanthine (Amersham, France, 1 to 5 Ci.mmol/ml) per well. After a further incubation of 24 hour, plates were frozen and thawed. Cell lysates were then collected onto glass-filter papers and counted in a liquid scintillation spectrometer. The growth inhibition for each drug concentration was determined by comparison of the radioactivity incorporated in the treated culture with that in the control culture (having the same final % of DMSO) maintained on the same plate. The concentration causing 50% growth inhibition (IC50) and 90% growth (IC90) were obtained from the drug concentration-response curve and the results were expressed as the means ± the standard deviations determined from several independent experiments.

human MRC-5 cells = experiment: Cytotoxicity test upon human embryonic cells (MTT); assay type: cell-based
Protocol: (§3) A human diploid embryonic lung cell line (MRC-5, Bio-Whittaker 72211D) was used to assess the cytotoxic effects towards eukaryotic host cells. MRC-5 cells were seeded at 5,000 cells per well in 100 μl. After 24 hours, the cells were washed and two-fold dilutions of the drug were added in 200 μl standard culture medium (RPMI medium + 5% fetal calf serum) and maintained for five days under 5% CO2 atmosphere. The final DMSO concentration in the culture remained below 0.1%. Untreated cultures were included as controls. The cytotoxicity was determined using the colorimetric MTT assay according to the manufacturer's recommendations (Cell proliferation kit I, Roche Applied Science, France) and scored as a percentage of reduction in absorption at 540 nm of treated cultures versus untreated control cultures. […] The results were expressed as the mean ± the standard deviations determined from several independent experiments. The index of selectivity was defined as the ratio of the IC50 value on MRC-5 to that of P. falciparum.

[2] = Cytotoxicity test upon human embryonic cells (MTT); assay type: cell-based; conditions: human, MRC-5 human diploid embryonic lung cells; MRC-5, five days, MTT; mean of three experiments
Protocol: as §3

P. falciparum strain W2 = experiment: Anti-Plasmodium activity, strain W2; assay type: cell-based
Protocol: as §1
as §2, with “The concentration causing 50% growth inhibition (IC50) and 90% growth (IC90) were obtained from the drug concentration-response curve and the results were expressed as the means ± the standard deviations determined from several independent experiments.” left out

[3] = tested on: malaria-induced anion channel; experiment: Malaria-induced anion channel activity, whole-cell patch-clamp; assay type: cell-based, Plasmodium falciparum; conditions: infected erythrocytes, 24 hours, 250 nM AD2646 or 10 μM PPMP, whole-cell patch-clamp (unpublished data)
Text: Sphingolipids preferentially interact with cholesterol in membranes, especially in detergent-resistant microdomains (DRMs or rafts). Rafts have been described in Plasmodium and are involved, at least, in the uptake of erythrocyte raft proteins and maintenance of the parasitophorous vacuole containing the parasite, inside the erythrocyte. This interaction implies : 1) van der Waals interactions between the saturated acyl chain and sphingoid moiety of sphingolipids and the rigid planar tetracyclic rings of cholesterol and 2) hydrogen bonds between the 3-β hydroxyl group of cholesterol and the fatty acyl carbonyl group resulting from the amide linkage with the sphingoid moiety. The amide-linked fatty acid function seems to have a profound stabilizing effect on cholesterol-sphingolipid interactions. It could be hypothesized that in a membrane context, methylene analogs might have a destabilizing effect on the cholesterol-sphingolipid interactions and, in consequence, modifications of membrane properties. Indeed, P. falciparum growth is characterized by a setting up of new permeabilities of the infected-erythrocyte membrane. Although the biochemical nature of these new permeabilities is still unknown, they have been characterized from an electrophysiological point of view and involve a malaria-induced anion channel. […]

[4] = tested on: tubovesicular network of P. falciparum; experiment: Tubovesicular network formation, BODIPY-FL-C5-ceramide fluorescence microscopy; assay type: cell-based, Plasmodium falciparum
Protocol: Infected erythrocytes treated with or without ceramide analogs were incubated for 30 min, at 37°C, in culture medium containing 10 μM BODIPY-FL-C5-ceramide, washed three times with culture medium without serum and fixed overnight, at 4°C, in 3.7% formaldehyde/0.05% glutaraldehyde. Cells were mounted on poly-L-lysine coated slides and viewed using a Nikon Eclipse TE 300 DV inverted microscope with an 100X oil objective mounted on a piezzo electric device using appropriate fluorescence emission filters. Image acquisition (z-series) was performed with a back illuminated cooled detector (CCD EEV: NTE/CCD-1024-EB, Roper Scientific, France) using a 0.2 μm step. Data acquisition and image deconvolution process were performed with Metamorph software (Universal Imaging Corporation, Roper Scientific, France). The images presented correspond to the maximum intensity projection of the deconvoluted z-series.

P. falciparum strain F32 = experiment: Anti-Plasmodium activity, strain F32; assay type: cell-based
Protocol: as §1
as §2, with “The concentration causing 50% growth inhibition (IC50) and 90% growth (IC90) were obtained from the drug concentration-response curve and the results were expressed as the means ± the standard deviations determined from several independent experiments.” left out

Structure (SMILES): CCCCCCCCCCCCCCN[C@H](CO)[C@H](O)c1ccc([N+](=O)[O-])cc1 [AD2646]
- efficiency in inhibiting parasite development relative to PPMP ([1]; AD2646 versus PPMP): about 300 times
- IC90 ([1]; Plasmodium falciparum, 48 h, Figure 3, series B, strain FcB1, 90% growth inhibition, read-out: CI90 (the source's name)): 57.7 ± 3.2 nM
- IC50 ([1]; Plasmodium falciparum, Figure 3, series B (methylene or thiourea linkage), strain FcB1, read-out: CI50 (the source's name)): 30.8 ± 4.6 nM
- IC50 (human MRC-5 cells; Homo sapiens, MRC5, 120 h, MRC-5, five days, MTT, mean of three experiments): 4900 nM
- Index of selectivity (human MRC-5 cells; ratio of the IC50 value on MRC-5 cells to that on P. falciparum): 160
- IC90 at 5 days [2]: 7500 nM
- IC50 (P. falciparum strain W2): 28 nM
- induced anion channel activity [3]: did not modulate significantly the induced channel activity
- parasite development ([4]; 60 nM): blocks irreversibly the parasite development
- TVN formation ([4]; rings incubated 24 hours with 60 nM AD2646 or 5 μM PPMP): TVN was distinctly observed
- IC50 (P. falciparum strain F32): 21 nM
